Assays:
[1] = test system: strain PAM1723 of P. aeruginosa; type: in vitro ADME; details: in words
Description: Stability of compounds was also evaluated using a bioassay. The test compound at 320 μg/ml was treated with rabbit kidney supernatant for 0, 0.5, 1 and 2 hours.

[2] = Tissue levels after 5 day repeated dosing in rat; type: in vivo; details: 20 mg/kg twice daily for 5 days, 6 hours after last dose
Description: The decreased tissue accumulation of compound 3 vis-a-vis 1 was confirmed in a multi-dose experiment. Rats received 20 mg/kg of either compound twice daily for 5 days. Animal were sacrificed 6 hours after the last dose and levels of compounds in kidneys, liver and lung were determined. FIG. 14 depicts the measured tissue levels. Approximately 100-fold, 60-fold, and 10-fold less compound 3 accumulated in kidney, liver and lung respectively, as compared to compound 1.

[3] = test system: PAM1723; details: Table 3
Description: Stability in rat and human serum was also evaluated using a bioassay. 320 μg/ml of the test compound was treated with 50% serum for 4 hours.
Bioassays as described in Example 62 and Example 65 were used to evaluate the stability of various compounds in serum and rabbit kidney homogenates.

[4] = test system: PAM 1753, MexEF-OprN over-expressed; assay: Tigecycline potentiation checkerboard assay, PAM 1753; type: cell-based, P. aeruginosa; design: Tigecycline MIC in the presence of Compound 21: unit not given here; details: PAM 1753
Description: (§1) The ability of compound 21 to increase susceptibility to tigecycline was also assessed. The tigecycline potentiating activity of compound 21 was assessed by the checkerboard assay (Antimicrobial Combinations, Antibiotics in Laboratory Medicine, ed. Victor Lorian, M.D., Fourth edition, 1996, pp 333-338, which is incorporated herein by reference in its entirety) using a broth micro-dilution method performed as recommended by the CSLI (Clinical and Laboratory Standards Institute, formerly NCCLS) guidelines (National Committee for Clinical Laboratory Standards 2003. Methods for Dilution Antimicrobial Susceptibility Tests for Bacteria That Grow Aerobically—Sixth Edition; Approved Standard. NCCLS Document M7-A6, Vol 20 No. 2). In this assay, multiple dilutions of the two drugs, compound 21 and tigecycline, were tested alone and in combination, at concentrations equal to, above and below their respective minimal inhibitory concentrations (MICs). […] The stock solution was further diluted in Mueller Hinton Broth (MHB). Stock solutions were stored at −80° C.
(§2) The checkerboard assay was performed in microtiter plates. Tigecycline was diluted in the x axis, each column containing a single concentration of tigecycline. Compound 21 was diluted in the y axis, each row containing an equal concentration of the EPI. […] The assay was performed in MHB with a final bacterial inoculum of 5×10^5 CFU/ml (from an early-log phase culture). The microtiter plates were incubated for 20 hours at 35° C. and then read using a microtiter plate reader (Molecular Devices) at 650 nm, as well as by visual observation using a microtiter plate-reading mirror.

[5] = test system: Burkholderia, Proteus, Morganella, Providencia and Serratia; assay: Potentiation of tigecycline against other gram-negative clinical isolates; type: cell-based; details: in words
Description: (§3) To further characterize the clinical potential of tigecycline/EPI combinations, the microbiological activity of tigecycline in combination with compound 21 was investigated using clinical isolates of P. aeruginosa and other gram-negative bacteria. In several experiments, described below, the impact of a fixed concentration of compound 21 (2.5 μg/ml) on susceptibility to tigecycline was determined.
Strains with decreased susceptibility to tigecycline were also present among representatives of Burkholderia, Proteus, Morganella, Providencia and Serratia. […] While not being bound by any particular theory, it is probable that the lack of potentiation by compound 21 is due to limited uptake of this particular EPI across the outer membrane of these bacteria, rather than the absence of efflux pumps.

[6] = test system: Enterobacter aerogenes 19; assay: Antibiotic MIC with fixed concentration of compound 21, Enterobacter aerogenes 19; type: cell-based
[7] = test system: Klebsiella pneumonia 79; assay: Antibiotic MIC with fixed concentration of compound 21, Klebsiella pneumonia 79; type: cell-based
Description: as §3
(§4) The impact of compound 21 on the activity of tigecycline against representative members of Enterobacteriacaea was also tested.

[8] = test system: Citrobacter freundii 13; assay: Antibiotic MIC with fixed concentration of compound 21, Citrobacter freundii 13; type: cell-based
Description: as §3, §4

[9] = test system: Klebsiella pneumonia 73; assay: Antibiotic MIC with fixed concentration of compound 21, Klebsiella pneumonia 73; type: cell-based
Description: as §3, §4

[10] = test system: PAM 1020, wt; assay: Tigecycline potentiation checkerboard assay, PAM 1020; type: cell-based, P. aeruginosa; design: Tigecycline MIC in the presence of Compound 21: unit not given here; details: PAM 1020
Description: as §1, §2

[11] = Solubility in water (stock solutions); details: stock solutions 10 mg/ml
[12] = azithromycin MIC with compound 21
[13] = levofloxacin MIC with compound 21 at […]
[14] = tigecycline MIC with compound 21 at […]

NCCC[C@H](N)C(=O)N[C@H](CCc1ccccc1)C(=O)Nc1cnc2ccccc2c1 [Compound 3, 2-(S),5-Diamino-pentanoic acid [3-phenyl-1-(R)-(quinolin-3-ylcarbamoyl)-propyl]-amide]
change of EPI activity after treatment with supernatant of rabbit kidney homogenate [1]: time-dependent reduction of the EPI activity
less compound 3 accumulated as compared to compound 1 ([2]; rat kidney): Approximately 100 fold
less compound 3 accumulated as compared to compound 1 ([2]; rat liver): ~60 fold
less compound 3 accumulated as compared to compound 1 ([2]; rat lung): ~10 fold
EPI MPC8 after 4 hours at 37° C., Frosen Human serum ([3]; 50% human serum): 5
EPI MPC8 after 4 hours at 37° C., Frozen Rat serum ([3]; 50% rat serum): 5
EPI MPC8 after 4 hours at 37° C., Saline ([3]; saline): 5

NCCC[C@H](N)C(=O)N[C@H](Cc1ccc(C(F)(F)F)cc1)C(=O)Nc1cnc2ccccc2c1 [Compound 21, 2-(S),5-Diamino-pentanoic acid [1-(R)-(quinolin-3-ylcarbamoyl)-2-(4-trifluoromethyl-phenyl)-ethyl]amide]
Tigecycline MIC in the presence of Compound 21 ([4]; Compound 21 0.625 μg/ml): 1
Tigecycline MIC in the presence of Compound 21 ([4]; Compound 21 1.25 μg/ml): 1
Tigecycline MIC in the presence of Compound 21 ([4]; Compound 21 5 μg/ml): 0.25
Tigecycline MIC in the presence of Compound 21 ([4]; Compound 21 10 μg/ml): 0.25
Tigecycline MIC in the presence of Compound 21 ([4]; Compound 21 20 μg/ml): 0.25
Tigecycline MIC in the presence of Compound 21 ([4]; Compound 21 40 μg/ml): 0.25
Tigecycline MIC in the presence of Compound 21 ([4]; Compound 21 […]): 0.25
effect on susceptibility to tigecycline [5]: did not decreased susceptibility to tigecycline
Azi + EPI (MIC) [6, 12]: 0.5
Levo + EPI at […] (MIC) [6, 13]: 16
Tig + EPI at […] (MIC) [6, 14]: 0.25
Azi + EPI (MIC) [7, 12]: 0.25
Levo + EPI at […] (MIC) [7, 13]: 4
Tig + EPI at […] (MIC) [7, 14]: 0.25
Azi + EPI (MIC) [8, 12]: ≦0.125
Levo + EPI at […] (MIC) [8, 13]: 8
Tig + EPI at […] (MIC) [8, 14]: 0.125
Azi + EPI (MIC) [9, 12]: ≦0.125
Levo + EPI at […] (MIC) [9, 13]: 4
Tig + EPI at […] (MIC) [9, 14]: 0.125
Tigecycline MIC in the presence of Compound 21 ([10]; Compound 21 0.625 μg/ml): 2
Tigecycline MIC in the presence of Compound 21 ([10]; Compound 21 1.25 μg/ml): 1
Tigecycline MIC in the presence of Compound 21 ([10]; Compound 21 5 μg/ml): 0.25
Tigecycline MIC in the presence of Compound 21 ([10]; Compound 21 10 μg/ml): 0.25
Tigecycline MIC in the presence of Compound 21 ([10]; Compound 21 20 μg/ml): 0.25
Tigecycline MIC in the presence of Compound 21 ([10]; Compound 21 40 μg/ml): 0.25
Tigecycline MIC in the presence of Compound 21 ([10]; Compound 21 […]): 0.5
solubility in water [11]: readily soluble in water

— patent US7879795B2, “Enhancement of tigecycline potency using efflux pump inhibitors” (Mpex Pharmaceuticals, Inc., priority 2004, dated 2011)
